According to PubChem BioAssay (NCI):
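Assay format: 96-well plates, 48-hour exposure. The concentration for 50% growth inhibition is given as GI50. At the TGI there is no net growth.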

Key:
Assay in all cases: growth of human tumour cells (NCI), 48 h
MDA-N = tested on: MDA-N
DMS 273 small cell lung = tested on: DMS 273 small cell lung
DMS 114 small cell lung = tested on: DMS 114 small cell lung
KM20L2 colon = tested on: KM20L2 colon
DLD-1 colon = tested on: DLD-1 colon
M19-MEL melanoma = tested on: M19-MEL melanoma
XF 498 CNS = tested on: XF 498 CNS
SNB-78 CNS = tested on: SNB-78 CNS
LXFL 529 NSCLC = tested on: LXFL 529 NSCLC

Row | SMILES | TGI (MDA-N) | TGI (DMS 273 small cell lung) | TGI (DMS 114 small cell lung) | TGI (KM20L2 colon) | TGI (DLD-1 colon) | TGI (M19-MEL melanoma) | TGI (XF 498 CNS) | TGI (SNB-78 CNS) | TGI (LXFL 529 NSCLC) | other results
1 | O=C(O)CC1C(=O)OC2C3COC(=O)c4cc(O)c(O)c(O)c4-c4c(cc(O)c(O)c4O)C(=O)OC2C(OC(=O)c2cc(O)c(O)c4c2C1C(O)C(=O)O4)C(OC(=O)c1cc(O)c(O)c(O)c1)O3 (stereo not drawn) | 50.1 µM |  |  |  |  |  |  |  |  | 
2 | CCOc1ccc(/C=N\N2C(=O)c3ccccc3C2=O)cc1 |  | > 100 µM | > 100 µM | > 100 µM | > 100 µM | > 100 µM | > 100 µM | > 100 µM | > 100 µM | 
3 | COc1ccc(/C=C/c2ccnc3ccccc23)cc1 | 31.6 µM |  |  |  |  |  |  |  |  | 
4 | CCOC(=O)C/C(N)=C(\C#N)C(=O)OCC |  | > 100 µM | > 100 µM | > 100 µM | > 100 µM | > 100 µM | > 100 µM | > 100 µM | > 100 µM | 
5 | O=C1/C(=C\c2ccc([N+](=O)[O-])cc2)CS(=O)(=O)C/C1=C/c1ccc([N+](=O)[O-])cc1 | 1.63 µM |  |  |  |  |  |  |  |  | GI50 (MDA-N): 305 nM
6 | CN=c1ss/c(=N\C(=S)N(C)C)n1C1CCCCC1 |  | > 31.6 µM | > 31.6 µM | > 31.6 µM | > 100 µM | > 31.6 µM | > 31.6 µM | > 31.6 µM | > 31.6 µM | 
7 | Cc1ccc(SC2C(C)(C)N(C(C)C)P2(=O)N(C(C)C)C(C)C)cc1 (stereo not drawn) |  | 27.7 µM |  | > 100 µM |  | > 86.6 µM |  | > 100 µM | > 100 µM | 
8 | COC(=O)CSc1n[nH]c(-c2ccccc2)n1 |  | > 100 µM | > 100 µM | > 100 µM | > 100 µM | > 100 µM |  | > 100 µM | > 100 µM | 
9 | CC(N)CN.CC(N)CN.[Cl-].[O]=[Os+2]=[O] (stereo not drawn) |  | > 100 µM | > 100 µM | > 100 µM | > 100 µM | 26.3 µM |  | > 100 µM | > 100 µM | GI50 (DMS 273 small cell lung): 43.1 µM; GI50 (DMS 114 small cell lung): 47.6 µM; GI50 (KM20L2 colon): 89.6 µM; GI50 (DLD-1 colon): > 100 µM; GI50 (M19-MEL melanoma): 7.59 µM; GI50 (SNB-78 CNS): > 100 µM; GI50 (LXFL 529 NSCLC): 53.1 µM
10 | COC(=O)[C@H]1CC(=O)C=C2CCCC21 (stereo partly drawn) |  | > 100 µM | > 100 µM |  | > 100 µM | > 100 µM | > 100 µM |  | > 100 µM | 
11 | CC1(C)C(=O)CCC(=O)C(C)(C)C2=CC=C(O2)C(C)(C)C(=O)CCC(=O)C(C)(C)C2=CC=C1O2 |  | > 100 µM |  | > 100 µM |  | > 100 µM |  | > 100 µM | > 100 µM | 
12 | Cc1ccc2nc3sc(=O)sc3nc2c1 | 32 µM |  |  |  |  |  |  |  |  | 
13 | CC(C)(C)C1CCC(CI)(N=[N+]=[N-])CC1 (stereo not drawn) |  | > 100 µM | > 100 µM | > 100 µM | > 100 µM | > 100 µM | > 100 µM | > 100 µM | > 100 µM | 
14 | O=c1c2cc(Br)ccc2[nH]c(=S)n1-c1ccccc1 |  | > 100 µM |  | > 100 µM | > 100 µM | > 100 µM |  | > 100 µM |  | 
15 | O=C(O)c1ccccc1-c1ccccc1C(=O)Nc1ccc2c(c1)Cc1ccccc1-2 | 77.1 µM |  |  |  |  |  |  |  |  | 
16 | Cc1cn(C2CC(N=[N+]=[N-])C(CO)O2)c(=O)[nH]c1=O (stereo not drawn) | > 1000 µM |  |  |  |  |  |  |  |  | 
17 | COc1ccc(/C=c2\sc3nnc(CCC(=O)Nc4cccc(C(F)(F)F)c4)n3c2=O)cc1 |  | > 100 µM | > 100 µM | > 100 µM | > 100 µM | > 100 µM | > 100 µM | > 100 µM | > 100 µM | 

Row | SMILES | TGI (MDA-N) | TGI (DMS 273 small cell lung) | TGI (DMS 114 small cell lung) | TGI (KM20L2 colon) | TGI (DLD-1 colon) | TGI (M19-MEL melanoma) | TGI (XF 498 CNS) | TGI (SNB-78 CNS) | TGI (LXFL 529 NSCLC) | other results
18 | O=S1c2ccccc2N=C(c2ccc3ccccc3c2)CC1c1ccccc1F (stereo not drawn) |  | > 100 µM | > 100 µM | > 100 µM | > 100 µM | > 100 µM | > 100 µM |  | > 100 µM | 
19 | Nc1nc2c(c(=O)[nH]1)N=C(COP(=O)(O)OP(=O)(O)O)CN2 | > 100 µM |  |  |  |  |  |  |  |  | 
20 | CC1=C(C(=O)Nc2cccc(C(F)(F)F)c2)C(c2ccccc2F)C(C(=O)Nc2cccc(C(F)(F)F)c2)=C(C)N1 |  |  | 14.2 µM | 18.4 µM | 20.3 µM | 21.3 µM | 14.6 µM | 65.6 µM | 19.2 µM | 
21 | CN(C(=O)C12C3C4C1C1C2C3C41C(=O)N(C)C(C)(C)C)C(C)(C)C (stereo not drawn) |  | > 50 µM | > 50 µM | > 50 µM |  | > 50 µM | > 50 µM | > 50 µM | > 50 µM | 
22 | CC(C)(C)C1CCP(=O)(c2ccccc2)CC1 (stereo not drawn) |  | > 100 µM | > 100 µM | > 100 µM | > 100 µM | > 100 µM | > 100 µM | > 100 µM | > 100 µM | 
23 | O=S(=O)(CC(O)C(Cl)(Cl)Cl)NNc1ccccc1 (stereo not drawn) | > 100 µM |  |  |  |  |  |  |  |  | 
24 | Cc1nn2c(=O)n(-c3cccc(-n4nnc5c(-c6ccccc6)c(C)nn5c4=O)c3C)nnc2c1-c1ccccc1 |  | > 100 µM | 30.2 µM | 42.1 µM | 91.6 µM | > 100 µM | 40.1 µM | > 100 µM | > 100 µM | 
25 | O=C(NCCSSCCNC(=O)/C(Cc1ccc(O)c(Br)c1)=N/O)/C(Cc1ccc(O)c(Br)c1)=N/O | 6.99 µM |  |  |  |  |  |  |  |  | 
26 | Cc1cc2oc(=O)c(Cl)c(Cl)c2c(C)c1Cl | 10.8 µM |  |  |  |  |  |  |  |  | 
27 | [CH3][Sn]([CH3])([CH3])[O]C(=O)C(O)c1ccccc1 (stereo not drawn) | 15.9 µM | 14 µM | 31.2 µM | 9.42 µM | > 100 µM | 9.6 µM | 20.9 µM | > 100 µM | > 28.4 µM | GI50 (DMS 273 small cell lung): 3.01 µM; GI50 (DMS 114 small cell lung): 5.78 µM; GI50 (KM20L2 colon): 2.98 µM; GI50 (DLD-1 colon): 4.93 µM; GI50 (MDA-N): 3620 nM; GI50 (M19-MEL melanoma): 3.31 µM; GI50 (XF 498 CNS): 2920 nM; GI50 (SNB-78 CNS): 42.7 µM; GI50 (LXFL 529 NSCLC): 2.98 µM
28 | S=C(Nc1ccc(Cl)cc1)SC1CCCCC1 | 47 µM |  |  |  |  |  |  |  |  | 
29 | COc1cc(-c2ccccc2)c(OC)cc1CCl |  | > 100 µM | > 100 µM | > 100 µM | > 100 µM | > 100 µM | > 100 µM | > 100 µM |  | 
30 | Cc1ccc(C)c(NC(=O)C(=O)CC(=O)c2cccc3ccccc23)c1 |  | > 100 µM | > 100 µM | > 100 µM | > 100 µM | > 100 µM |  | > 100 µM | > 100 µM | 
31 | C=C(CS(=O)(=O)c1ccccc1)C(=O)OCC |  | 35.5 µM | 25.7 µM | 45.3 µM | 21.4 µM |  | 33.4 µM |  | 27 µM | 
32 | NC(Cn1ccc(=O)c(O)c1)C(=O)O (stereo not drawn) | > 100 µM |  |  |  |  |  |  |  |  | 
33 | COc1ccc2oc(-c3cc4cc(OC)ccc4o3)cc2c1 |  | > 100 µM |  | > 100 µM | > 100 µM |  | > 100 µM | > 100 µM | > 100 µM | 
34 | NC(=O)c1ccccc1NC(=O)C(=O)Nc1n[nH]c(N)n1 |  | > 100 µM |  | > 100 µM | > 100 µM | > 100 µM | > 100 µM | > 100 µM | > 100 µM | 
